# Laboratory results from PMC8371461 (Frontiers in Pharmacology, 2021).
# Read-outs that look alike come from different tables or passages of the source.
# Legend:
# Assay in all cases: kinome scan
# [1] = target: T1, DAPK3 (Homo sapiens, UniProt O43293); type: binding; settings: 10 µM
# T1 construct: purchased DiscoverX (KINOMEscan)
# [2] = target: T2, PIK3CA(H1047Y) (Homo sapiens, UniProt P42336, H1047Y); type: binding; settings: 10 µM
# T2 construct: purchased DiscoverX (KINOMEscan)
# [3] = target: T3, PIM1 (Homo sapiens, UniProt P11309); type: binding
# T3 construct: purchased DiscoverX (KINOMEscan)
# [4] = target: T4, ASK2 (Homo sapiens, UniProt O95382); type: binding; settings: 10 µM
# T4 construct: purchased DiscoverX (KINOMEscan)
# [5] = target: FLT3(ITD); type: binding, human; settings: 10 µM
# [6] = target: T5, TGFBR2 (Homo sapiens, UniProt P37173); type: binding; settings: 10 µM
# T5 construct: purchased DiscoverX (KINOMEscan)
# [7] = target: T6, MKNK2 (Homo sapiens, UniProt Q9HBH9); type: binding
# T6 construct: purchased DiscoverX (KINOMEscan)
# [8] = target: T7, STK16 (Homo sapiens, UniProt O75716); type: binding; settings: 10 µM
# T7 construct: purchased DiscoverX (KINOMEscan)
# [9] = target: T8, PRKCE (Homo sapiens, UniProt Q02156); type: binding; settings: 10 µM
# T8 construct: purchased DiscoverX (KINOMEscan)
# [10] = target: T9, ABL1(Q252H)-nonphosphorylated (Homo sapiens, UniProt P00519, Q252H); type: binding; settings: 10 µM
# T9 construct: purchased DiscoverX (KINOMEscan)
# [11] = target: T10, DMPK2 (Homo sapiens, UniProt Q6DT37); type: binding; settings: 10 µM
# T10 construct: purchased DiscoverX (KINOMEscan)
# [12] = target: T11, PFCDPK1(P.falciparum) (Plasmodium falciparum, UniProt P62344); type: binding; settings: 10 µM
# T11 construct: purchased DiscoverX (KINOMEscan)
# Experimental: (§1) The kinome scan analysis was performed using the DiscoverX platform (www.discoverx.com). Briefly, T7 kinase-tagged phage strains are grown in parallel in 24-well or 96-well blocks in a BL21-derived E. coli host for 90 min until lysis. Lysates are centrifuged at 6,000 x g and filtered with a 0.2 µm filter to remove cell debris. Streptavidin-coated magnetic beads are treated with biotinylated kinase ligands for 30 min at room temperature to generate the affinity resin. Bound beads are blocked with excess biotin and washed with blocking buffer (SeaBlock (Pierce), 1% BSA, 0.05% Tween 20, and 1 mM DTT) to remove unbound ligand and reduce nonspecific phage binding. […] The final concentration of test compound is 10 µM. Assay plates are incubated at room temperature with shaking for 1 h. Affinity beads are treated four times with washing buffer (1X PBS, 0.05% Tween 20, and 1 mM DTT) to remove unbound phage. […] Q RT PCR is used to measure the amount of phage in each eluate (which is proportional to the amount of kinase bound). Data is presented as the percentage of kinase bound by 10 µM of the ligand compared to the DMSO only as a control.
# (§2) Hits are identified by an ultra-sensitive quantitative PCR detecting the specific DNA tag linked to each kinase (Supplementary Figure S2). The drug is used at a concentration of 10 µM and results are expressed as the percentage of signal (kinase PCR detection) with respect to DMSO control conditions. Thirteen hits were identified, with a signal reduction ranging from 0 to 27% (Table 3). Full raw data are presented in Supplementary Table S4. Interactions between 0 and 20% of reduction were considered to be the most significant ones. […] A sub-micromolar affinity (Kd<1 µM) was only seen with two PIKs (PIP4K2C, PI4KB) and GAK (Table 4). Inhibitions curves from these compounds are shown in Supplementary Figure S3.
# [13] = target: T12, PRP4 (Homo sapiens, UniProt Q13523); type: binding; settings: 10 µM
# T12 construct: purchased DiscoverX (KINOMEscan)
# Experimental: as §1, §2
# [14] = target: T13, CDC2L5 (Homo sapiens, UniProt Q14004); type: binding; settings: 10 µM
# T13 construct: purchased DiscoverX (KINOMEscan)
# Experimental: as §1, §2
# [15] = target: T14, PFPK5(P.falciparum) (Plasmodium falciparum, UniProt P61075); type: binding; settings: 10 µM
# T14 construct: purchased DiscoverX (KINOMEscan)
# Experimental: as §1, §2
# [16] = target: T15, IKK-alpha (Homo sapiens, UniProt O15111); type: binding; settings: 10 µM
# T15 construct: purchased DiscoverX (KINOMEscan)
# [17] = target: T16, PIK3CA(E545K) (Homo sapiens, UniProt P42336, E545K); type: binding; settings: 10 µM
# T16 construct: purchased DiscoverX (KINOMEscan)
# [18] = target: T17, TRKA (Homo sapiens, UniProt P04629); type: binding; settings: 10 µM
# T17 construct: purchased DiscoverX (KINOMEscan)
# [19] = target: T18, MEK1 (Homo sapiens, UniProt Q02750); type: binding; settings: 10 µM
# T18 construct: purchased DiscoverX (KINOMEscan)
# [20] = target: T19, PKN1 (Homo sapiens, UniProt Q16512); type: binding; settings: 10 µM
# T19 construct: purchased DiscoverX (KINOMEscan)
# [21] = target: T20, CAMK1D (Homo sapiens, UniProt Q8IU85); type: binding; settings: 10 µM
# T20 construct: purchased DiscoverX (KINOMEscan)
# [22] = target: T21, CDKL3 (Homo sapiens, UniProt Q8IVW4); type: binding; settings: 10 µM
# T21 construct: purchased DiscoverX (KINOMEscan)
# [23] = target: T22, HCK (Homo sapiens, UniProt P08631); type: binding; settings: 10 µM
# T22 construct: purchased DiscoverX (KINOMEscan)
# [24] = target: T23, PIP5K1C (Homo sapiens, UniProt O60331); type: binding; settings: 10 µM
# T23 construct: purchased DiscoverX (KINOMEscan)
# [25] = target: T24, MST3 (Homo sapiens, UniProt Q9Y6E0); type: binding; settings: 10 µM
# T24 construct: purchased DiscoverX (KINOMEscan)
# [26] = target: T25, MAP3K15 (Homo sapiens, UniProt Q6ZN16); type: binding; settings: 10 µM
# T25 construct: purchased DiscoverX (KINOMEscan)
# [27] = target: T26, PAK4 (Homo sapiens, UniProt O96013); type: binding; settings: 10 µM
# T26 construct: purchased DiscoverX (KINOMEscan)
# [28] = target: T27, MELK (Homo sapiens, UniProt Q14680); type: binding; settings: 10 µM
# T27 construct: purchased DiscoverX (KINOMEscan)
# [29] = target: T28, FLT3(R834Q) (Homo sapiens, UniProt P36888, R834Q); type: binding; settings: 10 µM
# T28 construct: purchased DiscoverX (KINOMEscan)
# [30] = target: T29, MEK6 (Homo sapiens, UniProt P52564); type: binding; settings: 10 µM
# T29 construct: purchased DiscoverX (KINOMEscan)
# [31] = target: T30, AURKB (Homo sapiens, UniProt Q96GD4); type: binding; settings: 10 µM
# T30 construct: purchased DiscoverX (KINOMEscan)
# [32] = target: T31, PRKD2 (Homo sapiens, UniProt Q9BZL6); type: binding; settings: 10 µM
# T31 construct: purchased DiscoverX (KINOMEscan)
# T6 sequence (Q9HBH9 whole entry): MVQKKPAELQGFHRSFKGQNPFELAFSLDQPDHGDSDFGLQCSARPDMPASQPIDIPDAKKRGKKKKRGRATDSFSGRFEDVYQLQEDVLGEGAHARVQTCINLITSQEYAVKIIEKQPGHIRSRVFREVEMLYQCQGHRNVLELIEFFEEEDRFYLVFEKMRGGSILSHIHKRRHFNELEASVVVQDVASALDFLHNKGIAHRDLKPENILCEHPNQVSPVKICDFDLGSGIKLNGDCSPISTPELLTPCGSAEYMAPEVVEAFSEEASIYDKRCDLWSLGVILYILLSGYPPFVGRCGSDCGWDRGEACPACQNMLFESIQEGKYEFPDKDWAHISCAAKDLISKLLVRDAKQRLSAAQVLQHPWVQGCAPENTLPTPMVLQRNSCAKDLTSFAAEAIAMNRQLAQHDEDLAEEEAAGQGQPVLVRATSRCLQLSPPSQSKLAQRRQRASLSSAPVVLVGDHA
# T3 sequence (P11309 whole entry): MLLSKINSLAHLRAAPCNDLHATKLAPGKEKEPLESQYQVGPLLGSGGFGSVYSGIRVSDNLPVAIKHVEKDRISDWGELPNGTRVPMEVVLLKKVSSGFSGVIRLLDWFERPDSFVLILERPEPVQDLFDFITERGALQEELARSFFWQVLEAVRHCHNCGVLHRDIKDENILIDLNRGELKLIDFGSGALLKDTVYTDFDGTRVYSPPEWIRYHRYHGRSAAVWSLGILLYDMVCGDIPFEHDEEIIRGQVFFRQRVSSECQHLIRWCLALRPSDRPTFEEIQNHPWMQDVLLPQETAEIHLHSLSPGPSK
# T5 sequence (P37173 23-567): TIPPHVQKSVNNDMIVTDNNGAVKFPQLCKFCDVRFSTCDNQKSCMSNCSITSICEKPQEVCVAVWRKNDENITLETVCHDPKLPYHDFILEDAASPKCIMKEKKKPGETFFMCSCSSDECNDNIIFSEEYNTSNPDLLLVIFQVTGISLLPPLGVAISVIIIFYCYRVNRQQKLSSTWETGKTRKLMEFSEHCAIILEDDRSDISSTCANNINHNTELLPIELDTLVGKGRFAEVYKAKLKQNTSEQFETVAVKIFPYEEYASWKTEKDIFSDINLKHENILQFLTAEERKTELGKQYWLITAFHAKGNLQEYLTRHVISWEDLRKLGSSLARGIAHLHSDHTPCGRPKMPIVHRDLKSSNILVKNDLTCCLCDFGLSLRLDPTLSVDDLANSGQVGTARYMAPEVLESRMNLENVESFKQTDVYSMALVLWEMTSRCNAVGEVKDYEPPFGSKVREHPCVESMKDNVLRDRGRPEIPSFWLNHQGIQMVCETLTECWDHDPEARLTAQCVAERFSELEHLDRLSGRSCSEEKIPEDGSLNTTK
# T26 sequence (O96013 whole entry): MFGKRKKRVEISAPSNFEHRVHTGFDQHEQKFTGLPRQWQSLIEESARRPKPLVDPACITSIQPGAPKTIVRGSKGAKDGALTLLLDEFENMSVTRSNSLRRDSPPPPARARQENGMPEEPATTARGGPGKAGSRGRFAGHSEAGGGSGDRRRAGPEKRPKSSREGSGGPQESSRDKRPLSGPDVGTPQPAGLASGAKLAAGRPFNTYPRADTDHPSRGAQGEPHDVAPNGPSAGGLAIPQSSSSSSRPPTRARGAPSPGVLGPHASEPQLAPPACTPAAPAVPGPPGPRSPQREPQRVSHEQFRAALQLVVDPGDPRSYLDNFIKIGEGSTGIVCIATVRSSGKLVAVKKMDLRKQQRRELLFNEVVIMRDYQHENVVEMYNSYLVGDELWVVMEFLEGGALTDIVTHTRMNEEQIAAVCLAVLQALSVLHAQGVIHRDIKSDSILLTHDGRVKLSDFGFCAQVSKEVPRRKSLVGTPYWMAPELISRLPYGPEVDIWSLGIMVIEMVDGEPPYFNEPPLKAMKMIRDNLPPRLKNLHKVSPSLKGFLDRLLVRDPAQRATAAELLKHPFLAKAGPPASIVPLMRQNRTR
# T22 sequence (P08631 whole entry): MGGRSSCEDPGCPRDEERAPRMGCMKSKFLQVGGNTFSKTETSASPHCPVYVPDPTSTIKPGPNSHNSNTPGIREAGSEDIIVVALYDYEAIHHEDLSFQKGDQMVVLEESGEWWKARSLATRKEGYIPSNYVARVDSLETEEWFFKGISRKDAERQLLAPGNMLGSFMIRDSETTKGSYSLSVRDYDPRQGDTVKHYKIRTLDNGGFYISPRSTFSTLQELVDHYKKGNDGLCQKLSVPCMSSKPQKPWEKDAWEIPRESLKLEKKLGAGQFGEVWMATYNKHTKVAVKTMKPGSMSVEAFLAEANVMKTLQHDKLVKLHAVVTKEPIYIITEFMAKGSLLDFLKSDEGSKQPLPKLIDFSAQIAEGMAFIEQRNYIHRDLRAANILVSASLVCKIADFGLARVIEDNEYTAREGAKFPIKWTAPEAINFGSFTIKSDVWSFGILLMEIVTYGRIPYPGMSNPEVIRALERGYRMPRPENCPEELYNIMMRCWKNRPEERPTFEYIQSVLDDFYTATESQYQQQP
# T4 sequence (O95382 whole entry): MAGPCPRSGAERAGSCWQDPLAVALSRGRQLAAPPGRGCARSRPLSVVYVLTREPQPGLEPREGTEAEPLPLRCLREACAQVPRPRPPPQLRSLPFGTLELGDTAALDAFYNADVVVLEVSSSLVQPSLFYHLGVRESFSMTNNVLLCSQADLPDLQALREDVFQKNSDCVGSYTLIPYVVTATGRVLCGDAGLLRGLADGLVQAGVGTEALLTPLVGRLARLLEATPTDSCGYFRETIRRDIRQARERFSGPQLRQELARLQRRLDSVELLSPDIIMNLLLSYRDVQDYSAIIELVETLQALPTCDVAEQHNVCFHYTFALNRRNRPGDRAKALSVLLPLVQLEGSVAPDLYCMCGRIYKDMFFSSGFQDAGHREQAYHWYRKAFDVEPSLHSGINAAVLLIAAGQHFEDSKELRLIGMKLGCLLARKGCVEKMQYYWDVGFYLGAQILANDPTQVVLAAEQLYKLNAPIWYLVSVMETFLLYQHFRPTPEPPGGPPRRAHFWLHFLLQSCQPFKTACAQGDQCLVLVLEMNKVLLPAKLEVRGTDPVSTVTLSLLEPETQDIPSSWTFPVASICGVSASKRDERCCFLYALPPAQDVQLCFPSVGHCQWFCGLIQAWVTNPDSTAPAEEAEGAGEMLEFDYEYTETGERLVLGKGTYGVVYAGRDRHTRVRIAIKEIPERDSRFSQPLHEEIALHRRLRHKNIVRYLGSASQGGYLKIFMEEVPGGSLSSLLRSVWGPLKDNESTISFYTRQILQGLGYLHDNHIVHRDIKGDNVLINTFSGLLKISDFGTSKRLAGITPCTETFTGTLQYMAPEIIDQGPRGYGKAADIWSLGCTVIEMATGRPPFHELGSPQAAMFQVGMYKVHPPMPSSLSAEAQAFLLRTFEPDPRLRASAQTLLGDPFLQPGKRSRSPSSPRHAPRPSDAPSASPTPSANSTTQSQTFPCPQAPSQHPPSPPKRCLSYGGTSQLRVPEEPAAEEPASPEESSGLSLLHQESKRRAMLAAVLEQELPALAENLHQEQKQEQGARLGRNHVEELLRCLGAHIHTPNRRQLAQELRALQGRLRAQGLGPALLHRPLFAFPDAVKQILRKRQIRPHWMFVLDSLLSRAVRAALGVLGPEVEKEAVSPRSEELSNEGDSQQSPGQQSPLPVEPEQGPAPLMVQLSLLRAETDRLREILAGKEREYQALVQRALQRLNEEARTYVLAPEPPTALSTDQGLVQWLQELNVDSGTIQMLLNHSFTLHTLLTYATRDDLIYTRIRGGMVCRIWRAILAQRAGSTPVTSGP
# T23 sequence (O60331 whole entry): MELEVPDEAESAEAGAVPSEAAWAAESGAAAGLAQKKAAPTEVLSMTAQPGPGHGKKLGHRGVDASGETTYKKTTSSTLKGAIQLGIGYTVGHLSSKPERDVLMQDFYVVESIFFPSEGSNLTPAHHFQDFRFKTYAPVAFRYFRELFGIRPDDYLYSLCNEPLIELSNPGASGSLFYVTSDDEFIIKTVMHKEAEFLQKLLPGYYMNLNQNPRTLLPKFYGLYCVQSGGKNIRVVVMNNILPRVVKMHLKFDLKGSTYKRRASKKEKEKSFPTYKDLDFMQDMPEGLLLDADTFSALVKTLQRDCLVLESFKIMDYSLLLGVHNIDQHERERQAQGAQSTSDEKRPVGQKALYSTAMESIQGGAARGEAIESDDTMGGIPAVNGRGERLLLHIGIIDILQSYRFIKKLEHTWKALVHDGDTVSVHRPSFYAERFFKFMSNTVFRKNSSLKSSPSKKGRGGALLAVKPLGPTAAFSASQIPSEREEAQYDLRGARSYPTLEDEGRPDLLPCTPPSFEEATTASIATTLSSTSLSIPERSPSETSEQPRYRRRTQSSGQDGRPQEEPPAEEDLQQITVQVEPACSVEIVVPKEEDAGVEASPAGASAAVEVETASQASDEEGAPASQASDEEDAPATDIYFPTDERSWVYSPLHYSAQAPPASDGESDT
# T21 sequence (Q8IVW4 whole entry): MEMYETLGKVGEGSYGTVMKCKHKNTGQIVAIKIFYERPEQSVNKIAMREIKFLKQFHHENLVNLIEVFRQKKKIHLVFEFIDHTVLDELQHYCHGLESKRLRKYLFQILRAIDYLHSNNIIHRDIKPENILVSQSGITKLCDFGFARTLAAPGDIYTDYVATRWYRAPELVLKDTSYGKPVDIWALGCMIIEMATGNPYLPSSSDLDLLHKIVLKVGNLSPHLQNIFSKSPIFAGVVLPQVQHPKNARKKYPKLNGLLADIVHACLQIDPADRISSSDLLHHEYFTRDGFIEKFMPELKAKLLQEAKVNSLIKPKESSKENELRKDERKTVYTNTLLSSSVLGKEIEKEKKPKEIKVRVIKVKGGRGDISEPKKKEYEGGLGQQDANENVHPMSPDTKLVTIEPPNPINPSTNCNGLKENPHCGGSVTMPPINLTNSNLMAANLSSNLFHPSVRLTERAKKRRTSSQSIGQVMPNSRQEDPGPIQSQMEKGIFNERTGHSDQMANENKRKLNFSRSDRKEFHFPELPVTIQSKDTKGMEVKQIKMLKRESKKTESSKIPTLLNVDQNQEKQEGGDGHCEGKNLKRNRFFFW
smiles,measurement,setting,value
"Nc1ccc(N=Nc2ccccc2)c(N)n1 [phenazopyridine, 2,6-diamino-3-(phenylazo)pyridine]",kinase inhibition,[1],100
same,kinase inhibition,[2],100
same,remaining binding (% of control),[3]; 10 µM,100
same,remaining binding at 10 µM,[3]; read-out: Kinome scan (% of control at 10 µM),100%
same,kinase inhibition,[4],83
same,remaining binding (% of control),[5],55
same,kinase inhibition,[6],66
same,remaining binding at 10 µM,"[7]; MKNK2, read-out: % Of control",6.6%
same,remaining binding (% of control),"[7]; MKNK2, 10 µM",6.6
same,remaining binding at 10 µM,"[7]; MNK2, read-out: Kinome scan (% of control at 10 µM)",6.6%
same,kinase inhibition,[8],76
same,kinase inhibition,[9],100
same,kinase inhibition,[10],90
same,kinase inhibition,[11],100
same,kinase inhibition,[12],100
same,"kinase bound, % of DMSO control",[13],100
same,kinase inhibition,[14],100
same,kinase inhibition,[15],89
same,kinase inhibition,[16],64
same,kinase inhibition,[17],88
same,kinase inhibition,[18],100
same,kinase inhibition,[19],99
same,kinase inhibition,[20],100
same,kinase inhibition,[21],100
same,kinase inhibition,[22],74
same,kinase inhibition,[23],100
same,kinase inhibition,[24],42
same,kinase inhibition,[25],98
same,kinase inhibition,[26],94
same,kinase inhibition,[27],100
same,kinase inhibition,[28],79
same,remaining binding (% of control),[29],89
same,kinase inhibition,[30],95
same,kinase inhibition,[31],72
same,kinase inhibition,[32],100
